From PMC12615753, “Glutathione as a taste modulator: molecular mechanisms of interaction with umami and sweet taste receptors” (Food Chemistry: Molecular Sciences, 2025)

Molecular target: T1, hTAS1R1 Q278K/rTAS1R3 (Homo sapiens, UniProt Q7RTX1, Q278K)
T1 construct: UniProtKB number Q7RTX1–1); expressed in transfected cells; host or cells: HEK293T/17 (ATCC CRL-11268)
T1 sequence (Q7RTX1 21-841 Q278K): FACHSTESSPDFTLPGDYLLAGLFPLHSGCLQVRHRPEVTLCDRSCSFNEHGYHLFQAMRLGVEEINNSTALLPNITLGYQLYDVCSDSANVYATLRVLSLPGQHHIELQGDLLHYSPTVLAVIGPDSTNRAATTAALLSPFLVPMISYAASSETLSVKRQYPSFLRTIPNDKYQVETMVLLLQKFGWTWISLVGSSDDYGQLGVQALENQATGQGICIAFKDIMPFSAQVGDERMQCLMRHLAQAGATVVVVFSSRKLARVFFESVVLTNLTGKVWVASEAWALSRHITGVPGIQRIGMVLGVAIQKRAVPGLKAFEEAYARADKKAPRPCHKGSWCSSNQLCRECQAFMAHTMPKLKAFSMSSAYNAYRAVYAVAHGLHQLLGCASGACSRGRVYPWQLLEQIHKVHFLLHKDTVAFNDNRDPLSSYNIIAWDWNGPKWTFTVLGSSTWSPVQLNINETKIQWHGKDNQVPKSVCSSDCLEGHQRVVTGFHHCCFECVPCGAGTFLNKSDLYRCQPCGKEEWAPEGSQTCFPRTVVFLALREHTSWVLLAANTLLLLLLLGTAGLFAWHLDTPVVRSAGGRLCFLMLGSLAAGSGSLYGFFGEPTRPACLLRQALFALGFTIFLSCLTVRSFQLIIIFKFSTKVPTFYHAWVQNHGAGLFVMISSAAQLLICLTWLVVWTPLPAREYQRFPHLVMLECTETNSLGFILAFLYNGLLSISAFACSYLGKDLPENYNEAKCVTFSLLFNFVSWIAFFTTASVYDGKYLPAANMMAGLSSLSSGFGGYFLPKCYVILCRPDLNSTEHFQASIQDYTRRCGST
T1 sequence (Q923K1 21-858 partner): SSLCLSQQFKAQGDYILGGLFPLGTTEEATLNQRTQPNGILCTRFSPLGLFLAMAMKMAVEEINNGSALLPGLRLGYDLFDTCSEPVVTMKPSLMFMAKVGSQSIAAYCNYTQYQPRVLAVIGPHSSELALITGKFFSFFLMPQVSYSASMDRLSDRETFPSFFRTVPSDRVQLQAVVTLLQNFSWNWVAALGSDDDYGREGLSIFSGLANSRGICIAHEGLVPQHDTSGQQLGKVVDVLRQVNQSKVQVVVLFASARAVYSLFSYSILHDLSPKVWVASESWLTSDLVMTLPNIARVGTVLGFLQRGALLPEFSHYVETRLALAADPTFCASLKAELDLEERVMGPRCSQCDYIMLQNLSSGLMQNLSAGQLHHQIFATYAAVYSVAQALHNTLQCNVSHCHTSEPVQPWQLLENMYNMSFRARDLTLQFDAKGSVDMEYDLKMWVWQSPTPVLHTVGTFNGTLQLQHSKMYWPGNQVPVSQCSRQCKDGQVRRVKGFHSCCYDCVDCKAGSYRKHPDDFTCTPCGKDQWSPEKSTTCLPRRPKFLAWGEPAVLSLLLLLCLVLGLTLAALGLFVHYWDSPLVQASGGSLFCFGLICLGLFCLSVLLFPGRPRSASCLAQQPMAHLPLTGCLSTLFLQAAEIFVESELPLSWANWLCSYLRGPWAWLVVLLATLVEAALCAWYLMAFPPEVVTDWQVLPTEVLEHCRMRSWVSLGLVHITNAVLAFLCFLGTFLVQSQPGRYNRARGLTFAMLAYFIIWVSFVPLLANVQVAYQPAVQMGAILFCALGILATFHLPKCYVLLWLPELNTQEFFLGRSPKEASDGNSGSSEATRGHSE
Test: Calcium assay, hTAS1R1 mutant co-expressed with rTAS1R3
Type: cell-based, rat

SMILES: N[C@@H](CCC(=O)N[C@@H](CS)C(=O)NCC(=O)O)C(=O)O [GSH, γ-L-glutamyl-L-cysteinyl-glycine]
- EC50: 5.66 ± 0.31 mM
- effect of the added compound (1 mM) on the response to L-Glu (Q278K): synergy was observed
- response to the agonist alone, vs WT (Q278K): significantly increased the initial amplitude
- Max ∆F/F0 (Q278K, GSH): 1.10 ± 0.02
- R1 = mutant EC50/WT EC50 (Q278K, GSH): 2.2
